Laboratory results reported in patent US20180215734A1, “PYRIMIDINE DERIVATIVES AS KINASE INHIBITORS AND THEIR THERAPEUTICAL APPLICATIONS” (NantBioScience, Inc., priority 2016, published 2018).

Tests used:
cSRC(h) = cSRC(h) (Homo sapiens, UniProt P12931); assay: Kinase assay, cSRC(h); assay type: biochemical
FGFR2(h) = FGFR2(h) (Homo sapiens, UniProt P21802); assay: Kinase assay, FGFR2(h); assay type: biochemical
TG1a Human AML Xenograft = assay: Antitumor efficacy on TG1a human AML xenograft; assay type: in vivo, mouse
Method: In this Example the antitumor activity of compounds 14, 17, 19, 45, and 48 of the current invention are tested using an art-recognized xenograft model of AML. (“T/C” refers to the ratio of the tumor's size in treated animals versus the tumor size in control untreated animals. “BWC” refers to “body weight change”).

Ret(h) = Ret(h) (Homo sapiens, UniProt P07949); assay: Kinase assay, Ret(h); assay type: biochemical
FGFR4(h) = FGFR4(h) (Homo sapiens, UniProt P22455); assay: Kinase assay, FGFR4(h); assay type: biochemical
FGFR3 = target: T1, FGFR3 (Homo sapiens, UniProt P22607); assay: BaF3 cells engineered for expression of FGFR3; assay type: cell-based; details: read-out: IC5o(nM) FGFR3
T1 construct: expressed in transfected cells; host or cells: BaF3
Excerpt: (§1) In FIG. 1 these kinases are from the fibroblast growth factor receptor class of kinases (FGFR1-FGFR4). Compound 19 kinase inhibitory activity FGFR1-FGFR4 are also depicted in Table 5.

[1] = Metabolic stability, rat liver microsomes; assay type: in vitro ADME
nude mouse model of AML = assay: Nude mouse model of AML (FIG. 2, FIG. 3); assay type: in vivo
Tie2(h) = Tie2(h) (Homo sapiens, UniProt Q02763); assay: Kinase assay, Tie2(h); assay type: biochemical
ALK(h) = ALK(h) (Homo sapiens, UniProt Q9UM73); assay: Kinase assay, ALK(h); assay type: biochemical
CYP450 3A4 = CYP450 3A4 (Homo sapiens, UniProt P08684); assay: CYP450 inhibition, 3A4; assay type: in vitro ADME
Excerpt: (§2) Table 9 discloses toxicity data for compound 19 from various toxicity tests well known to those of ordinary skill.

[2] = Metabolic stability, human liver microsomes; assay type: in vitro ADME
[3] = In vivo acute toxicity, MTD; details: PO, rat
Excerpt: as §2

Aurora-A (h) = Aurora-A (h) (Homo sapiens, UniProt O14965); assay: Kinase assay, Aurora-A (h); assay type: biochemical
Kato III = assay: Inhibition of proliferation (CellTiterblue, 72 hr), Kato III; assay type: cell-based; details: Homo sapiens, KATO III, 72 h
Method: A number of studies were performed to analyze the consequences of tyrosine kinase inhibition in cell lines. To do this, 1000 cells are seeded in 27 μl/well in 384-well microplates, which are then placed in a humidified CO2 incubator at 37° C. overnight. The next day, 3 μl/well of 10× concentrated drug is added and the plates are returned to the incubator for 72 hr. After 72 hr incubation, plates are removed and 6 μl/well CellTiterblue (Promega) viability reagent is added. Plates are returned to the incubator for 3 hrs, after which fluorescence measurements are read on the Victor X3 plate reader (Perkin Elmer). Data are analyzed using Excel (Microsoft), and GI50 values are determined using Prism (Graphpad).

KDR(h) = KDR(h) (Homo sapiens, UniProt P35968); assay: Kinase assay, KDR(h); assay type: biochemical
Method: (§3) Kinase assay protocols well known to those of ordinary skill in the art were used. Specifically, the buffer composition was as follows: 20 mM MOPS, 1 mM EDTA, 0.01% Brij-35, 5% Glycerol, 0.1% β-mercaptoethanol, 1 mg/mL BSA. Test compounds were initially dissolved in DMSO at the desired concentration, then serially diluted to the kinase assay buffer. In a final reaction volume of 25 μL FGFR1(h) (5-10 mU) and KDR(h) (5-10 mU) are incubated with 8 mM MOPS pH 7.0, 0.2 mM EDTA, 200 μM LRRASLG (Kemptide), 10 mM magnesium acetate and [γ^33P-ATP]. The reaction was initiated by the addition of the MgATP mix. After incubation for 40 minutes at room temperature, the reaction was stopped by addition of 5 μL of a 3% phosphoric acid solution. Ten L of the reaction was then spotted onto a P30 filter mat and washed three times for 5 minutes in 50 mM phosphoric acid and once in methanol prior to drying and scintillation counting. Wells containing substrate but no kinase and wells containing a phosphopeptide control were used to set 0% and 100% phosphorylation value, respectively.
Of all of the steps in developing a drug, the hardest is finding promising compounds. (See, e.g., Malo et al., “Statistical practice in high-throughput screening data analysis,” Nature Biotechnology, 2006, 24, 167-75.) Kinase inhibitors often also have an anti-proliferative effect. […] The kinase inhibitory activity Compound 19 was tested using the kinase assay described in Example 3. […] These mutations in the tested kinases are thought to play an important role in transformation of some cancers.

FGFR1(V561M)(h) = FGFR1(V561M)(h) (Homo sapiens, UniProt P11362, V561M); assay: Kinase assay, FGFR1(V561M)(h); assay type: biochemical
Method: as §3
Of all of the steps in developing a drug, the hardest is finding promising compounds. (See, e.g., Malo et al., “Statistical practice in high-throughput screening data analysis,” Nature Biotechnology, 2006, 24, 167-75.) Kinase inhibitors often also have an anti-proliferative effect. […]

ABL(h) = ABL(h) (Homo sapiens, UniProt P00519); assay: Kinase assay, ABL(h); assay type: biochemical
FGFR2 = target: T2, FGFR2 (Homo sapiens, UniProt P21802); assay: BaF3 cells engineered for expression of FGFR2; assay type: cell-based; details: read-out: IC5o(nM) FGFR2
T2 construct: expressed in transfected cells; host or cells: BaF3
Excerpt: as §1

CYP450 2D6 = CYP450 2D6 (Homo sapiens, UniProt P10635); assay: CYP450 inhibition, 2D6; assay type: in vitro ADME
Excerpt: as §2

Flt3(h) = Flt3(h) (Homo sapiens, UniProt P36888); assay: Kinase assay, Flt3(h); assay type: biochemical

Chain of KDR(h) (P35968 20-1356): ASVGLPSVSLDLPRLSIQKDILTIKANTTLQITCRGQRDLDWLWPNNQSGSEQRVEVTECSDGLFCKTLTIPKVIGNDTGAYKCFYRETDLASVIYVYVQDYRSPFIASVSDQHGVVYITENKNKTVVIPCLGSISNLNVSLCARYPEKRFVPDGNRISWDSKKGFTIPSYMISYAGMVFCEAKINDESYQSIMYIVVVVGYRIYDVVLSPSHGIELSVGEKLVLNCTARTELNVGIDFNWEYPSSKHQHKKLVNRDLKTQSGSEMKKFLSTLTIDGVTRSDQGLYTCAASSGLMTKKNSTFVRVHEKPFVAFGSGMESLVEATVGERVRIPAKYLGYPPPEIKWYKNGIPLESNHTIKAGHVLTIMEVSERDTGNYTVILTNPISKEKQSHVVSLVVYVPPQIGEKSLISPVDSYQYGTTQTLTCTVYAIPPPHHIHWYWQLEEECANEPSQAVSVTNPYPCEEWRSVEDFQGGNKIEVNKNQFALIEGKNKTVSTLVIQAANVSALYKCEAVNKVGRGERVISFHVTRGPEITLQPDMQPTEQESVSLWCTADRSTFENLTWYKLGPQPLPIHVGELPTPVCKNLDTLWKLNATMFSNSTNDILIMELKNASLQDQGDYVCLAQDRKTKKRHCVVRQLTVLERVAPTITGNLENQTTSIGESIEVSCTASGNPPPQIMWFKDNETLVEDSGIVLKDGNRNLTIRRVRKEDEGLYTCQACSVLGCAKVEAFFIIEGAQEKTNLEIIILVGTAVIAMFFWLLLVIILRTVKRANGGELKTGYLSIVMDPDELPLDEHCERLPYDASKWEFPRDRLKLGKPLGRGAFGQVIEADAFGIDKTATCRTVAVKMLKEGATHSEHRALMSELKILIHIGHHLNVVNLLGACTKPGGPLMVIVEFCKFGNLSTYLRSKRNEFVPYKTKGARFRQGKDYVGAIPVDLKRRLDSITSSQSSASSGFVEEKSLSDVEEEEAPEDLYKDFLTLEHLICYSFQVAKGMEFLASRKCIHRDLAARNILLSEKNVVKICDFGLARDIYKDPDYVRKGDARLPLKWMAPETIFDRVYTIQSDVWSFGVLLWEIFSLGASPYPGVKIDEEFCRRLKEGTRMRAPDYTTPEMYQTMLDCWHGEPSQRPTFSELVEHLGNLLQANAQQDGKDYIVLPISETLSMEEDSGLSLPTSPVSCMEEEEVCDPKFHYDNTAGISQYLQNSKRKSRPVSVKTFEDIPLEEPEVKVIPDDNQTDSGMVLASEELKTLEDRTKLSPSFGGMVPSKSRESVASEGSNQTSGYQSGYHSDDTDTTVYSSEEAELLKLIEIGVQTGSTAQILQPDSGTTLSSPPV
Chain of CYP450 3A4 (P08684 whole entry): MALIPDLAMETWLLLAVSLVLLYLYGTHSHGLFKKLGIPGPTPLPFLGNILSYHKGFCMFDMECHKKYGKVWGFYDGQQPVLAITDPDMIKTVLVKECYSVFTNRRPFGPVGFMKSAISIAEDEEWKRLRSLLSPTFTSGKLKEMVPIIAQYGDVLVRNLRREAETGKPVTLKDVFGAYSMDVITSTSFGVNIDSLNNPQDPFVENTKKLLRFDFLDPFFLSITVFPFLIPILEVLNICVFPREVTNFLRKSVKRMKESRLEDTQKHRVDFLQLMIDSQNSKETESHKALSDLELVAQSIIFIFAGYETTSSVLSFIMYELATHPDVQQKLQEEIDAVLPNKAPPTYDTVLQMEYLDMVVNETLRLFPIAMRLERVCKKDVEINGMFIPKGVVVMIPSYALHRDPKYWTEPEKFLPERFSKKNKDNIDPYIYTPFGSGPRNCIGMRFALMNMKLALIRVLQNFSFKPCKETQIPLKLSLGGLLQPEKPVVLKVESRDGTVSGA
Chain of cSRC(h) (P12931 whole entry): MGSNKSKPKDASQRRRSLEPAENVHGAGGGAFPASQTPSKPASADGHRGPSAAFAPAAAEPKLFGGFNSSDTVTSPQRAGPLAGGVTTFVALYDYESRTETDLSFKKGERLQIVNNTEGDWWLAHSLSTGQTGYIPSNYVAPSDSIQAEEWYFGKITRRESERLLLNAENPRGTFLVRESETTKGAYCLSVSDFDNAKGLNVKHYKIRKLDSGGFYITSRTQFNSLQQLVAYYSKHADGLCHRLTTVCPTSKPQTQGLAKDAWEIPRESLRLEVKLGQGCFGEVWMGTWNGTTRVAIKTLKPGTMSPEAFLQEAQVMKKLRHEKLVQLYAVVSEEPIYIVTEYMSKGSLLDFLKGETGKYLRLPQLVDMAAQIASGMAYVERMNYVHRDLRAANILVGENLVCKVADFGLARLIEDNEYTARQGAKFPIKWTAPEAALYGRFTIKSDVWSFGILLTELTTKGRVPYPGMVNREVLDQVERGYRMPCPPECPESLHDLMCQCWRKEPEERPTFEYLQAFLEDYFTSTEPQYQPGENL
Chain of ALK(h) (Q9UM73 19-1620): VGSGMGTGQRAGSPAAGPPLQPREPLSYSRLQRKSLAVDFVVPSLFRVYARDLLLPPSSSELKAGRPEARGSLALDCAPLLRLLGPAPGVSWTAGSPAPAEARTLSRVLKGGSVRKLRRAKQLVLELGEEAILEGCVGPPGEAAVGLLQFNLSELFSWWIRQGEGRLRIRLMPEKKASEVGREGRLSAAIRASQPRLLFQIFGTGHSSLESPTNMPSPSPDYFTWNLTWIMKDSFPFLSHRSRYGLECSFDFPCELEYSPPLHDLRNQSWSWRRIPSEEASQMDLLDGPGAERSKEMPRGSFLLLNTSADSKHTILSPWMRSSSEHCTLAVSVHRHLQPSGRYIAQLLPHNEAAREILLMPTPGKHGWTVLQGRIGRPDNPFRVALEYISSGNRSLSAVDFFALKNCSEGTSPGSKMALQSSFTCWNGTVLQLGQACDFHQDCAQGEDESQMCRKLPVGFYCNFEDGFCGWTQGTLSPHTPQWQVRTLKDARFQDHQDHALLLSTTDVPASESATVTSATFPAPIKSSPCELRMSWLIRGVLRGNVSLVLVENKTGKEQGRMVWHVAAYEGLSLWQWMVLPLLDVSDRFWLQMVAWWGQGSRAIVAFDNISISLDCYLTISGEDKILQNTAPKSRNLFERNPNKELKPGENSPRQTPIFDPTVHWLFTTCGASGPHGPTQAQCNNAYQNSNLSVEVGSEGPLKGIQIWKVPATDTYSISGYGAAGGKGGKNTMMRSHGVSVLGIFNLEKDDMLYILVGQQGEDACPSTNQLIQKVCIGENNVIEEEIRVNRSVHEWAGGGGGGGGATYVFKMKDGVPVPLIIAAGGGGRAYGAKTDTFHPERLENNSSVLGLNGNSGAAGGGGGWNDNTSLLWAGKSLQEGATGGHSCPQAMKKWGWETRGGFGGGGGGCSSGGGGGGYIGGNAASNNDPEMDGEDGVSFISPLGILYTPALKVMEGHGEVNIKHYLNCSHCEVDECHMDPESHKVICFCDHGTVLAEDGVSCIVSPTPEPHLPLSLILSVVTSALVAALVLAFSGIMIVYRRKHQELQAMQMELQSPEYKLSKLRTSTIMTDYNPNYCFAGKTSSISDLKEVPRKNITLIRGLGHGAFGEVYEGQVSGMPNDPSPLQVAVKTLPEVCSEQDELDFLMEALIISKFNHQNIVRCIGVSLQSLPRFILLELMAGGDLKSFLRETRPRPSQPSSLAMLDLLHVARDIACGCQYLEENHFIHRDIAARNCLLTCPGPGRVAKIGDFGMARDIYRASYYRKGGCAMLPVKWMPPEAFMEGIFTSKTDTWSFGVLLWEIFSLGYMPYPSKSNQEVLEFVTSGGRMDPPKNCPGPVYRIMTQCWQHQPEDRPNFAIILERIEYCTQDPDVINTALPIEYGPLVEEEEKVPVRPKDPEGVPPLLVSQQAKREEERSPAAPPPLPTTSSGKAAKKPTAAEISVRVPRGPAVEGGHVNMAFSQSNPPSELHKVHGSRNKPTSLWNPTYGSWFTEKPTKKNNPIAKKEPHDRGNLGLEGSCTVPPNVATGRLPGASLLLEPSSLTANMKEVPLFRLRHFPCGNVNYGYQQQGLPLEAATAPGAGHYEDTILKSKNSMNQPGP
T2 sequence (P21802 22-821, species assumed): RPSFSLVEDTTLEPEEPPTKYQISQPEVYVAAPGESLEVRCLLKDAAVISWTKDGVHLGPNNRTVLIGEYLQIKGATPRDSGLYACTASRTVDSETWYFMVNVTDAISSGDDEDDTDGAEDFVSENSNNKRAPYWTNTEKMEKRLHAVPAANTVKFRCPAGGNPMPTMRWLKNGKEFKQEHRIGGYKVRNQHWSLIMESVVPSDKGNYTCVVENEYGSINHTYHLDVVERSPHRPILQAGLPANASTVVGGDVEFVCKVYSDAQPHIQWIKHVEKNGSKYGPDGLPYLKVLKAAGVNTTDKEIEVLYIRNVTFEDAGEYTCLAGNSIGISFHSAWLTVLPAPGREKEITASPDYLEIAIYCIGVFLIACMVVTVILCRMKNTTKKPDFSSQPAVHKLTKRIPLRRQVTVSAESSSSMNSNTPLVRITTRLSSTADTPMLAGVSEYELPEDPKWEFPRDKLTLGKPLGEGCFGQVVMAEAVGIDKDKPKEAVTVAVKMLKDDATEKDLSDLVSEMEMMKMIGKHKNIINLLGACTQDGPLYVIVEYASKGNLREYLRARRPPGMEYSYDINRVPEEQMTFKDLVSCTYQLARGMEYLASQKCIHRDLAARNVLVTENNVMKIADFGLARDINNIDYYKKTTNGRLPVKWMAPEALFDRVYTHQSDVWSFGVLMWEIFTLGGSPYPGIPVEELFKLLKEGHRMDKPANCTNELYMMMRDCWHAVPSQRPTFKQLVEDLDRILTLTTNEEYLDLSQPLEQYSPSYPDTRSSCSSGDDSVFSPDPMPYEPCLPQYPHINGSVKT
Chain of FGFR2(h) (P21802 22-821): as the sequence (P21802 22-821, species assumed) above

Cc1cc2c(F)c(Oc3ncnc(Nc4ccc(N5C[C@@H](C)N[C@@H](C)C5)cc4)c3C#N)cc(F)c2[nH]1 [Compound 19]
IC50 (cSRC(h)): > 1 µM
IC50 (FGFR2(h)): 0.011 µM
BWC (%) (TG1a Human AML Xenograft; 5 mg/kg, Qdx10, IP): −4.1%
T/C (%) (day14) (TG1a Human AML Xenograft; 5 mg/kg, Qdx10, IP): −69.7%
BWC (%) (TG1a Human AML Xenograft; 10 mg/kg, Qdx10, IP): −6.3%
T/C (%) (day14) (TG1a Human AML Xenograft; 10 mg/kg, Qdx10, IP): −83.7%
BWC (%) (d7) (TG1a Human AML Xenograft; 20 mg/kg, Qdx10, IP, d7): −26.2%
T/C (%) (day7) (TG1a Human AML Xenograft; 20 mg/kg, Qdx10, IP, day7): −68.7%
Weight loss in dose-response study (FIGS. 4 and 5) (TG1a Human AML Xenograft; highest dose, 20 mg/kg): significant weight loss
IC50 (Ret(h)): > 1 µM
IC50 (FGFR4(h)): 0.012 µM
IC50 (FGFR3): 32.6 nM
half-life [1]: > 1 h
Antitumor activity (tumor cells expansion), FIG. 2 (nude mouse model of AML; both dosages tested): near complete suppression of the tumor cells expansion
Animal weight as surrogate marker for toxicity, FIG. 3 (nude mouse model of AML; vs control): no difference between the control and compound 19 treated animals
IC50 (Tie2(h)): > 1 µM
IC50 (ALK(h)): > 1 µM
IC50 (CYP450 3A4): 67.3 µM
half-life [2]: > 1 h
MTD [3]: 100 mg/kg
IC50 (Aurora-A (h)): > 1 µM
GI50 (Kato III): 0.079 µM
IC50 (KDR(h)): 0.485 µM
inhibition at 1 µM (KDR(h)): 86%
IC50 (FGFR1(V561M)(h)): 0.134 µM
IC50 (ABL(h)): > 1 µM
IC50 (FGFR2): 17.6 nM
IC50 (CYP450 2D6): > 100 µM
IC50 (Flt3(h)): > 1 µM
